The values below come from patent publication US8835648B2, “Hedgehog pathway antagonists and therapeutic applications thereof” (Siena Biotech S.p.A., priority 2009, dated 2014).

Assay [1] has as its system 293FlpIN/clone E-3 mock transfected cells. The assay can be described thus: Bodipy-Cyclopamine specific binding curve, mock transfected cell line clone E-3. The conditions noted are these: stable mock transfected cell line clone E-3.
A further assay concerns the target T1, Smo receptor (Homo sapiens, UniProt Q99835).
T1 construct: expressed in transfected cells; template pCMV6-XL5-Smo, Origene cat; TC122724
The assay can be described thus: Bodipy-Cyclopamine specific binding curve, Smo-FLAG transfected cell line clone 3-5. The note with it: stable Smo-FLAG transfected cell line clone 3-5.

T1 sequence (Q99835 28-787): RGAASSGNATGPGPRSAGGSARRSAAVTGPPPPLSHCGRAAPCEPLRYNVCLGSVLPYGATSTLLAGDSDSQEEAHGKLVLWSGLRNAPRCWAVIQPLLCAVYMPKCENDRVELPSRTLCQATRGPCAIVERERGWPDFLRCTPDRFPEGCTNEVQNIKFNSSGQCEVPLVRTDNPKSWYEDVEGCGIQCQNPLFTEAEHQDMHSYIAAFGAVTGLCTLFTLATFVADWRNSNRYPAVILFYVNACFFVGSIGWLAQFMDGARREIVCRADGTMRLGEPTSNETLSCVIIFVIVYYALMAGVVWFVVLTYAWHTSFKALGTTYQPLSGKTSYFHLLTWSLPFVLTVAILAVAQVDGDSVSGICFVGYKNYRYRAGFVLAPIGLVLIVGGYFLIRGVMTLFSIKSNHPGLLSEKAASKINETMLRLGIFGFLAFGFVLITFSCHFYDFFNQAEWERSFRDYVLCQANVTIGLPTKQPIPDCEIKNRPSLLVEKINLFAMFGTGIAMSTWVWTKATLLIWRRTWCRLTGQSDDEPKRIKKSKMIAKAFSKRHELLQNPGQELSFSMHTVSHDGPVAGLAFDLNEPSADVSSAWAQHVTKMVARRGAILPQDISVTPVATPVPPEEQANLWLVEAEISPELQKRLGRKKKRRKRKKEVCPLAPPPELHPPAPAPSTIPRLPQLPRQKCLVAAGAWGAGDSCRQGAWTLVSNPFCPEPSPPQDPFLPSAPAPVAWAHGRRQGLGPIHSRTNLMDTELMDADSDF

Consider `CC1=C2CC3C(CC=C4C[C@@H](O)CCC43C)C2CCC12O[C@@H]1CC(C)CN(CCNC(=O)CCCCCNC(=O)CCC3=[N+]4C(=Cc5c(C)cc(C)n5[B-]4(F)F)C=C3)C1C2C` (some centres unmarked) [Bodipy-Cyclopamine], for which the Kd in assay [1] came to 115 nM; on Smo receptor, 44.3 nM.
